The text below walks through data of patent US20150157588A1, “Pharmaceutical Composition Comprising Amino-Phenyl-Acetic Acid Octadec-(Z)-9-enyl Ester and Use Thereof for Treating Tumors” (Yeda Research and Development Co., Ltd., priority 2012, published 2015).

Structures are written as SMILES.

Experiment [1] concerns virulent 3LL clone, D122. The experiment can be described thus: 3LL induced lung carcinoma, intravenous injection of D122 cells, deaths and lung weight. Type of experiment: in vivo, mouse. Particulars: for lung weight of the living mice: in mg (unit assumed); for number of dead mice: groups of 10, control seven. How it is done:
8-weeks old C57BL/6 male mice in groups of 10 were injected intravenously with 500,000 cells of a virulent 3LL clone, D122. Mice were treated daily for 35 days with either 5% ethanol in PBS (control); 100 μg amino-phenyl-acetic acid octadec-(Z)-9-enyl ester in 5% ethanol in PBS subcutaneously (SC); or 100 μg amino-phenyl-acetic acid octadec-(Z)-9-enyl ester in 5% ethanol in PBS intranasally (IN).
8-weeks old C57BL/6 male mice in groups of 10 were injected intravenously with 500,000 cells of a virulent 3LL clone, D122. Mice either left untreated, or were treated daily for 30 days with intranasal administration of either 5% ethanol in PBS (control); 100 μg of amino-phenyl-acetic acid octadec-(Z)-9-enyl ester in PBS; or 100 μg of amino-phenyl-acetic acid octadec-(Z)-9-enyl ester in 5% ethanol in PBS.
As shown in FIGS. 7A-7D, while treatment with amino-phenyl-acetic acid octadec-(Z)-9-enyl ester in PBS reduced the lung weight of the living mice from 718±351 in the control mice treated with 5% ethanol in PBS to 671±187 (FIGS. 7B-7C), treatment with amino-phenyl-acetic acid octadec-(Z)-9-enyl ester in ethanol solution reduced the lung weight of the living mice to 317±103 (FIG. 7D).

Experiment [2] concerns Jurkat transformed T cell line. The experiment can be described thus: Apoptosis by FACS, hypo-diploid nuclei PI staining, Jurkat cells. It is filed as cell-based, human. The settings on record: Jurkat tumor line cells; 10 μg in ethanol solution. How it is done: White bars (left bar of each pair) represent cells treated with 10 μg of amino-phenyl-acetic acid octadec-(Z)-9-enyl ester in ethanol solution, and black bars (right bar of each pair) represent cells treated with 10 μg of the control molecule 4-methyl-piperazino-acetic acid ethyl ester in ethanol solution. The two bars on the left represent freshly isolated T cells and the two bars on the right represent transformed Jurkat cells.
B or T-cell apoptosis was detected by flow cytometry. Briefly, purified cells were seeded in 24 well plates, 5×10^5 per well, and incubated for 48 h at 37° C. 5% CO2 in the presence of HSP60 (heat shock protein 60) at the indicated concentration of amino-phenyl-acetic acid octadec-(Z)-9-enyl ester. […] The cells were then subjected to flow cytometric analysis; for each sample 10,000 were collected and cell-cycle distribution was analyzed according to relative DNA content (PI staining). […] The cells were then collected, stained by APO-DIRECT TUNNEL kit (Phnxflow, CITY, Calif., USA); mitochondrial potential was measured by DePsipher (R&D Systems, Minneapolis, Minn.) according to the manufacturer's procedure. Intracellular caspase activity was measured by Apostat kit (R&D Systems), according to the manufacturer's procedure. The cells were analyzed by Flow cytometry using FACSort (Becton Dickinson) and CellQuest software (Becton Dickinson).

[3] abbreviates: 100 μg in 5% ethanol in PBS intranasally daily for 35 days.
Setting [4] is: 100 μg in 5% ethanol in PBS subcutaneously daily for 35 days.

Regarding `CCCCCCCC/C=C\CCCCCCCCOC(=O)C(N)c1ccccc1` (stereo not shown) [amino-phenyl-acetic acid octadec-(Z)-9-enyl ester], the “lung weight of the living mice” value was 317±103 in experiment [1] (100 μg in 5% ethanol in PBS intranasally daily for 30 days), 259±84 in experiment [1] (setting [3]), 501±252 in experiment [1] (setting [4]) and 671±187 in experiment [1] (100 μg in PBS intranasally daily for 30 days). In addition, the “number of dead mice” value in experiment [1] (setting [3]) is given as “a single mouse”; in experiment [1] (setting [4]), “four”. For the same compound, in experiment [2], the apoptosis is given as 100%.
